Experimental data reported in patent US8633242B2, “Benzylidene indanones and processes for preparation and use thereof” (Council of Scientific and Industrial Research, priority 2011, dated 2014).
“Also recorded” adds a separate entry of the source.

Legend:
[1] = system: HCT (Colon); assay: Sulphorhodamine B cytotoxicity assay, HCT; type: cell-based, human
Protocol: (§1) The benzylidene analogues were evaluated by Sulphorhodamine B Assay as per reported method [Skehan et al., J. Natl. Cancer Inst. 1990, 82, 1107]. The human cancer cell lines procured from National Cancer institute, Frederick, U.S.A. were used in present study. Cells were grown in tissue culture flasks in complete growth medium (RPMI-1640 medium with 2 mM glutamine, pH 7.4 supplemented with 10% fetal bovine serum, 100 μg/ml streptomycin and 100 units/ml penicillin) in a carbon dioxide incubator (37° C., 5% CO2, 90% RH). The cells at subconfluent stage were harvested from the flask by treatment with trypsin (0.05% in PBS (pH 7.4) containing 0.02% EDTA). Cells with viability of more than 98%, as determined by trypan blue exclusion, were used for determination of cytotoxicity. The cell suspension required concentration of cells was prepared in complete growth medium. Stock solution of 2×10^−2 M of compounds were prepared in DMSO and further dilution was carried out complete growth medium containing 50 μg/ml of gentamycin to obtained working test solution of required concentration. In vitro cytotoxicity against various human cancer cell lines was determined using 96-well cell culture plates. The 100 μl of cell suspension was added to each well of the 96-well cell culture plates. The cells were allowed to grow in CO2 incubator (37° C., 5% CO2, 90% RH) for 24 hours. The test materials in complete growth medium (100 μl) were added after 24 hours incubation to the wells containing cell suspension. The plates were further incubated for 48 hours (37° C. in an atmosphere of 5% CO2 and 90% relative humidity) in a carbon dioxide incubator after addition of test material and then the cell growth was stopped by gently layering trichloroacetic acid (50% TCA, 50 μl) on top of the medium in all the wells. The plates were incubated at 4° C. for one hour to fix the cells attached to the bottom of the wells. The liquid of all the wells was gently pipetted out and discarded. The plates were washed five times with distilled water to remove TCA, growth medium low molecular weight metabolites, serum proteins etc. and air-dried. Cell growth was measured by staining with sulforhodamine B dye. The adsorbed dye was dissolved in Tris-HCl Buffer (100 μl/well, 0.01M, pH 10.4) and plates were gently stirred for 10 minutes on a mechanical stirrer. The optical density (OD) was recorded on ELISA reader at 540 nm. 5-Fluorouracil, Paclitaxel (Taxol), Mitomycin-c and Adriamycin were used as positive controls.

[2] = system: PC-3 (prostate); assay: Sulphorhodamine B cytotoxicity assay, PC-3; type: cell-based, human; parameters: key to Human cancer cell lines IC50, PC-3 (prostate): Inactive: inactive, if IC50 > 100 μM; conditions: SRB assay, 48 hours incubation
Protocol: as §1

[3] = system: HeLa (Cervix); assay: Sulphorhodamine B cytotoxicity assay, HeLa; type: cell-based, human; conditions: Homo sapiens, HeLa; SRB assay, 48 hours incubation; read-out: Human cancer cell lines IC50, HeLa (Cervix)
Protocol: as §1

[4] = system: various human cancer cell lines; assay: Cytotoxicity against various human cancer cell lines (summary statements); type: cell-based
Protocol: The benzylidene analogues were evaluated by Sulphorhodamine B Assay as per reported method [Skehan et al., J. Natl. Cancer Inst. 1990, 82, 1107]. The human cancer cell lines procured from National Cancer institute, Frederick, U.S.A. were used in present study. Cells were grown in tissue culture flasks in complete growth medium (RPMI-1640 medium with 2 mM glutamine, pH 7.4 supplemented with 10% fetal bovine serum, 100 μg/ml streptomycin and 100 units/ml penicillin) in a carbon dioxide incubator (37° C., 5% CO2, 90% RH). The cells at subconfluent stage were harvested from the flask by treatment with trypsin (0.05% in PBS (pH 7.4) containing 0.02% EDTA). Cells with viability of more than 98%, as determined by trypan blue exclusion, were used for determination of cytotoxicity. The cell suspension required concentration of cells was prepared in complete growth medium. Stock solution of 2×10^−2 M of compounds were prepared in DMSO and further dilution was carried out complete growth medium containing 50 μg/ml of gentamycin to obtained working test solution of required concentration. In vitro cytotoxicity against various human cancer cell lines was determined using 96-well cell culture plates. […] Cell growth was measured by staining with sulforhodamine B dye. […] The optical density (OD) was recorded on ELISA reader at 540 nm. […]

[5] = system: A549 (Lung); assay: Sulphorhodamine B cytotoxicity assay, A549; type: cell-based, human; conditions: Homo sapiens, A549; SRB assay, 48 hours incubation; read-out: Human cancer cell lines IC50, A549 (Lung)
Protocol: as §1

[6] = system: tubulin protein; assay: In-vitro tubulin polymerisation inhibition assay; type: biochemical
Protocol: The tubulin polymerization experiment was performed using ‘assay kit’ (Cytoskeleton USA) following manufacturer's protocol based on the procedure described by of Shelanski et al. (1973) and Lee et al. (1977). Briefly, tubulin protein (3 mg/mL) in tubulin polymerization buffer (80 mM PIPES, pH 6.9, 2 mM MgCl2, 0.5 mM EGTA, 1 mM GTP and 15% glycerol) was placed in pre-warmed 96-well microtiter plates at 37° C. in the presence of test compounds with variable concentrations. All samples were mixed well and polymerization was monitored kinetically at 340 nm every min for 1 h using a Spectramax plate reader. Podophyllotoxin and etoposide were used as positive controls and DMSO as negative control. The IC50 value was determined from dose-dependent analysis and is defined as the concentration that inhibits the rate of polymerization by 50%.
Podophyllotoxin and etoposide, standard tubulin polymerisation inhibitors were used as positive controls.

[7] = system: DU-145 (prostate); assay: Sulphorhodamine B cytotoxicity assay, DU-145; type: cell-based, human; parameters: key to Human cancer cell lines IC50, DU-145 (prostate): Inactive: inactive, if IC50 > 100 μM; conditions: SRB assay, 48 hours incubation
Protocol: as §1

[8] = system: MCF-7 (Breast cancer); assay: Sulphorhodamine B cytotoxicity assay, MCF-7; type: cell-based, human
Protocol: as §1

[9] = system: THP-1 (Leukemia); assay: Sulphorhodamine B cytotoxicity assay, THP-1; type: cell-based, human
Protocol: as §1

COc1cc(C2/C(=C/c3ccc4c(c3)OCO4)C(=O)c3cc(OC)c(OC)c(OC)c32)cc(OC)c1OC (racemic) [Compound 8, 2-(3,4-Methylenedioxybenzylidine), 3-(3,4,5-trimethoxyphenyl), 4,5,6-trimethoxyindanone]
activity against HCT (Colon) cancer cell line, in words [1]: better activity
IC50 ([1]; Homo sapiens, SRB assay, 48 hours incubation, read-out: Human cancer cell lines IC50, HCT (Colon)): 100 nM
Human cancer cell lines IC50, PC-3 (prostate) [2]: Inactive
IC50 [3]: 23000 nM
anticancer activity against human cancer cell lines, in words [4]: exhibits anticancer activity
IC50 [5]: 11000 nM
inhibition of tubulin polymerisation, in words [6]: tubulin polymerisation inhibition; also recorded: strong inhibition
IC50 ([6]; read-out: Tubulin polymerisation inhibition IC50, tubulin 3 mg/mL, 37° C., 340 nm, 1 h): 630 nM
Human cancer cell lines IC50, DU-145 (prostate) [7]: Inactive
anticancer activity against human breast cancer cells (MCF-7), in words [8]: better activity; also recorded: potent anticancer activity
IC50 ([8]; Homo sapiens, MCF7, SRB assay, 48 hours incubation, read-out: Human cancer cell lines IC50, MCF-7 (Breast cancer)): 10 nM
activity against leukemia cell lines (THP), in words [9]: potent activity
IC50 ([9]; Homo sapiens, THP-1, SRB assay, 48 hours incubation, read-out: Human cancer cell lines IC50, THP-1 (Leukemia)): 4900 nM
